Measurements published in patent US12378256B2, “Heterocyclic compound” (Takeda Pharmaceutical Company Limited, priority 2017, dated 2025).
pEC50: −log10 of the molar value.

Biological target: T1, human M1 receptor (hCHRM1) (Homo sapiens, UniProt P11229)
T1 construct: expressed in transfected cells; host or cells: CHO-K1
T1 sequence (P11229 1-460): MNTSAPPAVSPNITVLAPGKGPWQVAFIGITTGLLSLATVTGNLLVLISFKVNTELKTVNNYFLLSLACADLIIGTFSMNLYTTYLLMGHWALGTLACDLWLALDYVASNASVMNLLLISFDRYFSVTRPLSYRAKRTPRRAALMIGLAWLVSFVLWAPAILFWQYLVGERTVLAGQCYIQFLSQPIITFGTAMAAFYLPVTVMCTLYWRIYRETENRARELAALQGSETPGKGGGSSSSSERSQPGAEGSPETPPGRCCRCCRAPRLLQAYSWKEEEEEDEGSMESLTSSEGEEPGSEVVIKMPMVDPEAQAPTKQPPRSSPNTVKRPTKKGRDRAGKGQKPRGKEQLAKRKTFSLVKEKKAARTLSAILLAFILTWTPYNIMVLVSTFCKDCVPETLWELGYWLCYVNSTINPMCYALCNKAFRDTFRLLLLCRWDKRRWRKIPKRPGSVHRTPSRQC
Test: Measurement of M1 receptor positive allosteric modulator (M1PAM) activity, calcium fluorescence with acetylcholine at EC20
Format: cell-based
Settings: for activity (%) at 10 μM: 10 μM test compound, 100% = 1 μM acetylcholine, 0% = DMSO; for pEC50: CHO-K1 cells expressing hCHRM1, acetylcholine at EC20 (final 0.8-1.0 nM), read-out: IP value (inflection point in the concentration-dependent curve)
Procedure: Measurement of M1 Receptor Positive Allosteric Modulator (M1PAM) Activity
The activity of a test compound in the presence of acetylcholine at EC20 concentration (final concentration 0.8-1.0 nM), which affords an action corresponding to about 20% of the maximum activity, was measured as PAM activity. The method is as follows. CHO-K1 cells stably expressing a human M1 receptor (hCHRM1) were plated on a 384-well black clear bottom plate (BD Falcon) at 5,000 cells/well, and cultured in an incubator at 37° C., 5% CO2 for 1 day. The medium in the cell plate was removed, and assay buffer A containing calcium indicator (Recording medium (DOJINDO LABORATORIES), 0.1% BSA (Wako Pure Chemical Industries, Ltd.), 2.5 μg/mL Fluo-4 AM (DOJINDO LABORATORIES), 0.08% Pluronic F127 (DOJINDO LABORATORIES), 1.25 mM probenecid (DOJINDO LABORATORIES)) was added at 30 μL/well. The cells were left standing in the incubator at 37° C., 5% CO2 for 30 min, and further left standing at room temperature for 30 min. A test compound prepared by diluting with assay buffer B (HBSS (Invitrogen), 20 mM HEPES (Invitrogen), 0.1% BSA) containing 3.2-4.0 nM acetylcholine was added at 10 μL/well, and the fluorescence was measured by FDSS/μCELL (Hamamatsu Photonics K.K.) for 1 min every for 1 second. With the definition that the amount of change in the fluorescence on addition of acetylcholine (final concentration 1 μM) is 100% and that on addition of DMSO instead of a test compound is 0%, the activity (%) of the test compound was calculated, and the inflection point in the concentration-dependent curve of the test compound was calculated as IP values.

Which “activity (%) at 10 μM” value does the source give for Cn1cc(-c2ccc(C(F)c3cc(C(=O)N[C@H]4CCCC[C@@H]4O)nc4ccoc34)cn2)cn1 (stereo partly drawn) [Example 70, 7-(fluoro(6-(1-methyl-1H-pyrazol-4-yl)pyridin-3-yl)methyl)-N-((1S,2S)-2-hydroxycyclohexyl)furo[3,2-b]pyridine-5-carboxamide] here?
Its value is 99%.

What about the pEC50 of the same compound?
The pEC50 was 8.92.

O=C(N[C@H]1COCC[C@@H]1O)c1cc(Cc2ccc(-n3cccn3)cc2)c2c(n1)CCO2 [Example 3, 1,5-anhydro-2,4-dideoxy-2-(((7-(4-(1H-pyrazol-1-yl)benzyl)-2,3-dihydrofuro[3,2-b]pyridin-5-yl)carbonyl)amino)-L-threo-pentitol] was tested. Which “activity (%) at 10 μM” value did it give?
Its value is 100%.

And the pEC50?
The pEC50 was 7.89.

With CC(C)SCCNC(=O)c1ccc(Cc2cc(C(=O)N[C@H]3CCOC[C@@H]3O)nc3c2OCC3)cc1F [Example 97, 1,5-anhydro-2,3-dideoxy-3-(((7-(3-fluoro-4-((2-(isopropylsulfanyl)ethyl)-carbamoyl)benzyl)-2,3-dihydrofuro[3,2-b]pyridin-5-yl)carbonyl)amino)-L-threo-pentitol] as the compound, how does the “activity (%) at 10 μM” value read?
The value was 107%.

What about the pEC50 of the same compound?
The pEC50 was 8.29.

With O=C(NC1CC(F)(F)CCC1O)c1cc(Cc2ccc(-n3cccn3)cc2)c2c(n1)CCO2 (single isomer, unassigned) [Example 27, N-(trans-5,5-difluoro-2-hydroxycyclohexyl)-7-(4-(1H-pyrazol-1-yl)benzyl)-2,3-dihydrofuro[3,2-b]pyridine-5-carboxamide] as the compound, how does the “activity (%) at 10 μM” value read?
The value was 100%.

What about the pEC50 of the same compound?
The pEC50 was 8.35.

With O=C(N[C@H]1CCOC[C@@H]1O)c1cc(Cc2ccc(C(=O)NC[C@H]3CCCO3)c(F)c2)c2occc2n1 [Example 105, 1,5-anhydro-2,3-dideoxy-3-(((7-(3-fluoro-4-(((2R)-tetrahydrofuran-2-ylmethyl)carbamoyl)benzyl)-furo[3,2-b]pyridin-5-yl)carbonyl)amino)-L-threo-pentitol] as the compound, how does the “activity (%) at 10 μM” value read?
The value was 105%.

What about the pEC50 of the same compound?
Its pEC50 is 8.37.

With CN(C)C(=O)CNC(=O)c1ccc(Cc2cc(C(=O)N[C@H]3CCOC[C@@H]3O)nc3c2OCC3)cc1F [Example 100, 1,5-anhydro-2,3-dideoxy-3-(((7-(4-((2-(dimethylamino)-2-oxoethyl)carbamoyl)-3-fluorobenzyl)-2,3-dihydrofuro[3,2-b]pyridin-5-yl)carbonyl)amino)-L-threo-pentitol] as the compound, how does the “activity (%) at 10 μM” value read?
Its value is 103%.

What about the pEC50 of the same compound?
The pEC50 was 8.42.

Which results are given for Cc1ncc(-c2ccc(Cc3cc(C(=O)N[C@H]4CCCC[C@@H]4O)nc4c3OCC4)cc2)s1 [Example 18, N-((1S,2S)-2-hydroxycyclohexyl)-7-(4-(2-methyl-1,3-thiazol-5-yl)benzyl)-2,3-dihydrofuro[3,2-b]pyridine-5-carboxamide]?
activity (%) at 10 μM: 97%; pEC50: 7.92

With Cc1csc(-c2ccc(Cc3cc(C(=O)N[C@H]4CCCC[C@@H]4O)nc4c3OCC4)cc2)n1 [Example 16, N-((1S,2S)-2-hydroxycyclohexyl)-7-(4-(4-methyl-1,3-thiazol-2-yl)benzyl)-2,3-dihydrofuro[3,2-b]pyridine-5-carboxamide] as the compound, how does the “activity (%) at 10 μM” value read?
The value was 100%.

What about the pEC50 of the same compound?
The pEC50 was 8.00.

With Cn1cc(-c2ccc(Cc3cc(C(=O)N[C@H]4COCC[C@@H]4O)nc4ccoc34)cc2)nn1 [Example 21, 1,5-anhydro-2,4-dideoxy-2-(((7-(4-(1-methyl-1H-1,2,3-triazol-4-yl)benzyl)furo[3,2-b]pyridin-5-yl)carbonyl)amino)-L-threo-pentitol] as the compound, how does the “activity (%) at 10 μM” value read?
The value was 100%.

What about the pEC50 of the same compound?
The pEC50 was 8.80.

How did the “activity (%) at 10 μM” value turn out when CN1Cc2cc(Cc3cc(C(=O)N[C@H]4CCOC[C@@H]4O)nc4c3OCC4)ccc2C1=O [Example 113, 1,5-anhydro-2,3-dideoxy-3-(((7-((2-methyl-1-oxo-2,3-dihydro-1H-isoindol-5-yl)methyl)-2,3-dihydrofuro[3,2-b]pyridin-5-yl)carbonyl)amino)-L-threo-pentitol] was run?
The value was 109%.

What about the pEC50 of the same compound?
The pEC50 was 7.68.

Which results are given for Cn1ccc(-c2ccc(Cc3cc(C(=O)N[C@H]4CCOC[C@@H]4O)nc4c3OCC4)cc2)n1 [Example 28, 1,5-anhydro-2,3-dideoxy-3-(((7-(4-(1-methyl-1H-pyrazol-3-yl)benzyl)-2,3-dihydrofuro[3,2-b]pyridin-5-yl)carbonyl)amino)-L-threo-pentitol]?
activity (%) at 10 μM: 101%; pEC50: 8.64

How did the “activity (%) at 10 μM” value turn out when Cn1cc(-c2ccc(Cc3cc(C(=O)N[C@H]4CCCC[C@@H]4O)nc4c3OCC4)cn2)cn1 [Example 61, N-((1S,2S)-2-hydroxycyclohexyl)-7-((6-(1-methyl-1H-pyrazol-4-yl)pyridin-3-yl)methyl)-2,3-dihydrofuro[3,2-b]pyridine-5-carboxamide] was run?
Its value is 104%.

What about the pEC50 of the same compound?
Its pEC50 is 8.74.

What does the source list for O=C(N[C@H]1CCOC[C@@H]1O)c1cc(Cc2ccc(C(=O)NC[C@H]3CCCO3)c(F)c2)c2c(n1)CCO2 [Example 88, 1,5-anhydro-2,3-dideoxy-3-(((7-(3-fluoro-4-(((2R)-tetrahydrofuran-2-ylmethyl)carbamoyl)benzyl)-2,3-dihydrofuro[3,2-b]pyridin-5-yl)carbonyl)amino)-L-threo-pentitol]?
activity (%) at 10 μM: 111%; pEC50: 8.12
